Biological target: MAGE-A11:PCF11 (Homo sapiens (Human), UniProt P43364)
Test: TR-FRET single point screening at 15 μM
Assay type: binding
Parameters: unit not given here
Details: single point TR-FRET screening at 15 μM against MAGE-A11:PCF11
Procedure, shortened: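 Single-point screen at 15 μM (0.25% DMSO) measuring disruption of GST-MAGEA11 (5 nM) binding to FAM-PCF11_4 peptide (200 nM) detected by Tb-anti-GST (5 nM). Buffer 50 mM Tris pH 7.5, 20 mM MgCl2, 0.1 mg/ml BSA, 1 mM DTT; 90 min at ~25 °C; 520/490 nm ratio converted to % inhibition versus controls.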

Chain of MAGE-A11:PCF11 (P43364 218-429): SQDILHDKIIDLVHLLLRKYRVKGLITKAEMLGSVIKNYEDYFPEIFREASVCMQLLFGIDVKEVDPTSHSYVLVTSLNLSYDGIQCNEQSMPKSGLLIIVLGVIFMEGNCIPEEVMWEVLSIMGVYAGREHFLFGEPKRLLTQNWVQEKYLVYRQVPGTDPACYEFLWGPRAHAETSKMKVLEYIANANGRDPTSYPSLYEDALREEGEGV

SMILES	TR-FRET signal
CCCN(CCCNc1c2ccc(Cl)cc2nc2ccc(OC)cc12)Cc1ccccn1 [SJ000520919]	−146.2
CCCN(CCCNc1c2ccc(Cl)cc2nc2ccc(OC)cc12)Cc1cccs1 [SJ000520920]	−164.1
CCCN(CCCNc1c2ccc(Cl)cc2nc2ccc(OC)cc12)Cc1ccsc1 [SJ000520922]	−258
CCCN(CCCNc1c2ccc(Cl)cc2nc2ccc(OC)cc12)Cc1ccc[nH]1 [SJ000520923]	−271
CCCN(CCCNc1c2ccc(Cl)cc2nc2ccc(OC)cc12)Cc1ccccc1 [SJ000520925]	−127.9
CCCN(CCCNc1c2ccc(Cl)cc2nc2ccc(OC)cc12)Cc1ccc(C)s1 [SJ000520927]	−124.8
CCCN(CCCNc1c2ccc(Cl)cc2nc2ccc(OC)cc12)Cc1ccc(Br)o1 [SJ000520929]	−137.3
CCCN(CCCNc1c2ccc(Cl)cc2nc2ccc(OC)cc12)Cc1cc(OC)ccc1O [SJ000520933]	−150.8
CCCN(CCCNc1c2ccc(Cl)cc2nc2ccc(OC)cc12)Cc1ccco1 [SJ000520935]	−202.6
CCCN(CCCNc1c2ccc(Cl)cc2nc2ccc(OC)cc12)CC1CC1 [SJ000520936]	−271.4
CCCN(CCCNc1c2ccc(Cl)cc2nc2ccc(OC)cc12)Cc1ccoc1 [SJ000520937]	−394.6
CCCN(CCCNc1c2ccc(Cl)cc2nc2ccc(OC)cc12)CC1CCCCC1 [SJ000520938]	−163.9
CCCN(CCCNc1c2ccc(Cl)cc2nc2ccc(OC)cc12)CC(CC)CC [SJ000520939]	−160.3
CCCN(CCCNc1c2ccc(Cl)cc2nc2ccc(OC)cc12)Cc1ccc2c(c1)OCO2 [SJ000520940]	−193.5
CCCCCN(CCC)CCCNc1c2ccc(Cl)cc2nc2ccc(OC)cc12 [SJ000520941]	−210.3
CCCN(CCCNc1c2ccc(Cl)cc2nc2ccc(OC)cc12)Cc1ccc(OC)cc1 [SJ000520943]	−241.4
CCCN(CCCNc1c2ccc(Cl)cc2nc2ccc(OC)cc12)Cc1ccccc1F [SJ000520944]	−118.6
CCCN(CCCNc1c2ccc(Cl)cc2nc2ccc(OC)cc12)Cc1ccc(F)cc1 [SJ000520946]	−141.7
CCCN(CCCNc1c2ccc(Cl)cc2nc2ccc(OC)cc12)Cc1ccccc1[N+](=O)[O-] [SJ000520947]	−228.3
CCCN(CCCNc1c2ccc(Cl)cc2nc2ccc(OC)cc12)Cc1ccccc1OC [SJ000520950]	−271.1
CCCN(CCCNc1c2ccc(Cl)cc2nc2ccc(OC)cc12)Cc1ccccc1C(=O)O [SJ000520951]	−258.6

SMILES	TR-FRET signal
CCCN(CCCNc1c2ccc(Cl)cc2nc2ccc(OC)cc12)Cc1ccc2ccccc2c1 [SJ000520953]	−129.1
CCCN(CCCNc1c2ccc(Cl)cc2nc2ccc(OC)cc12)Cc1cccc(C)c1 [SJ000520954]	−157.8
CCCN(CCCNc1c2ccc(Cl)cc2nc2ccc(OC)cc12)Cc1ccc(OC)c(OC)c1 [SJ000520957]	−175.5
CCCN(CCCNc1c2ccc(Cl)cc2nc2ccc(OC)cc12)CCCc1ccccc1 [SJ000520958]	−267.2
CCCN(CCCNc1c2ccc(Cl)cc2nc2ccc(OC)cc12)CC(C)CC (stereo not drawn) [SJ000520959]	−264.8
CCCN(CCCNc1c2ccc(Cl)cc2nc2ccc(OC)cc12)Cc1cc(C)ccc1C [SJ000520960]	−119.3
CCCN(CCCNc1c2ccc(Cl)cc2nc2ccc(OC)cc12)Cc1cccc(OC)c1 [SJ000520961]	−244.6
CCCN(CCCNc1c2ccc(Cl)cc2nc2ccc(OC)cc12)CCc1ccccc1 [SJ000520962]	−591.7
CCCCCCN(CCC)CCCNc1c2ccc(Cl)cc2nc2ccc(OC)cc12 [SJ000520963]	−153.7
COc1ccc2nc3cc(Cl)ccc3c(NCCCNCc3cccn3C)c2c1 [SJ000520985]	−402.5
COc1ccc2nc3cc(Cl)ccc3c(NCCCNCc3cccnc3)c2c1 [SJ000520986]	−409
COc1ccc2nc3cc(Cl)ccc3c(NCCCNCc3cn(C)c4ccccc34)c2c1 [SJ000520987]	−252.4
COc1ccc2nc3cc(Cl)ccc3c(NCCCNCc3nccs3)c2c1 [SJ000520989]	−355.2
COc1ccc2nc3cc(Cl)ccc3c(NCCCNCc3cccc(C(F)(F)F)c3)c2c1 [SJ000520990]	−408.1
COc1ccc2nc3cc(Cl)ccc3c(NCCCNCc3cccc4c3OCO4)c2c1 [SJ000520991]	−257.1
COc1ccc2nc3cc(Cl)ccc3c(NCCCNCc3ccc(OC(F)(F)F)cc3)c2c1 [SJ000520992]	−201
COc1ccc2nc3cc(Cl)ccc3c(NCCCNCc3cc(F)ccc3OC)c2c1 [SJ000520993]	−365.4
COc1ccc2nc3cc(Cl)ccc3c(NCCCNCCC(C)(C)C)c2c1 [SJ000520994]	−456.3
CCCCNCCCNc1c2ccc(Cl)cc2nc2ccc(OC)cc12 [SJ000520995]	−405.5
COc1ccc2nc3cc(Cl)ccc3c(NCCCNCc3cc(Br)cs3)c2c1 [SJ000520996]	−287.6

Same assay, conditions: single point TR-FRET screening of quinoline compounds against MAGE-A11:PCF11; 15 μM

SMILES	TR-FRET signal
CCCN(CCCNc1c2ccc(Cl)cc2nc2ccc(OC)cc12)Cc1sccc1C [SJ000520921]	−83.81
CCCN(CCCNc1c2ccc(Cl)cc2nc2ccc(OC)cc12)Cc1ccc(Br)s1 [SJ000520924]	−56.45
CCCN(CCCNc1c2ccc(Cl)cc2nc2ccc(OC)cc12)Cc1ccccc1O [SJ000520926]	−91.84
CCCN(CCCNc1c2ccc(Cl)cc2nc2ccc(OC)cc12)Cc1ccccc1C(F)(F)F [SJ000520928]	14.17
CCCN(CCCNc1c2ccc(Cl)cc2nc2ccc(OC)cc12)Cc1cccc(OC)c1O [SJ000520930]	−81.96
CCCN(CCCNc1c2ccc(Cl)cc2nc2ccc(OC)cc12)Cc1cc(F)ccc1OC [SJ000520931]	1.847
CCCN(CCCNc1c2ccc(Cl)cc2nc2ccc(OC)cc12)Cc1ccc(C)o1 [SJ000520932]	0.9854
CCCN(CCCNc1c2ccc(Cl)cc2nc2ccc(OC)cc12)Cc1c(C)cc(C)cc1C [SJ000520934]	−46.32
CCCN(CCCNc1c2ccc(Cl)cc2nc2ccc(OC)cc12)Cc1ccc(F)c(F)c1 [SJ000520942]	0.9703
CCCN(CCCNc1c2ccc(Cl)cc2nc2ccc(OC)cc12)Cc1cccc(F)c1 [SJ000520945]	−90.13
CCCN(CCCNc1c2ccc(Cl)cc2nc2ccc(OC)cc12)Cc1cccc([N+](=O)[O-])c1 [SJ000520948]	−10.74
CCCN(CCCNc1c2ccc(Cl)cc2nc2ccc(OC)cc12)Cc1ccc([N+](=O)[O-])cc1 [SJ000520949]	−9.039
CCCN(CCCNc1c2ccc(Cl)cc2nc2ccc(OC)cc12)Cc1cccc2ccccc12 [SJ000520952]	−40.77
CCCN(CCCNc1c2ccc(Cl)cc2nc2ccc(OC)cc12)Cc1ccc(N(C)C)cc1 [SJ000520955]	−10.06
CCCN(CCCNc1c2ccc(Cl)cc2nc2ccc(OC)cc12)Cc1ccc(Cl)cc1Cl [SJ000520956]	9.598
COc1ccc2nc3cc(Cl)ccc3c(NCCCNCc3cccc(OC(F)(F)F)c3)c2c1 [SJ000520988]	−73.54

Source: patent publication US20240246941A1, “SUBSTITUTED 4-(3-AMINOPROP-1-YL)AMINOQUINOLINE ANALOGS AS MODULATORS OF MELANOMA-ASSOCIATED ANTIGEN 11 UBIQUITIN LIGASE” (ST. JUDE CHILDREN'S RESEARCH HOSPITAL, INC., priority 2020, published 2024)
